Data reported in article PMC5540273, “Progress towards a public chemogenomic set for protein kinases and a call for contributions” (PLoS ONE, 2017).

Columns and labels:
Experiment in all cases: KINOMEscan competition binding
AKT2 = AKT2 (Homo sapiens, UniProt P31751); conditions: read-out: %Inh AKT2
ALK = ALK (Homo sapiens, UniProt Q9UM73); conditions: read-out: %Inh ALK
EPHA6 = target: T1, EPHA6 (Homo sapiens, UniProt Q9UF33); conditions: read-out: %Inh EPHA6
T1 sequence (Q9UF33 23-1036): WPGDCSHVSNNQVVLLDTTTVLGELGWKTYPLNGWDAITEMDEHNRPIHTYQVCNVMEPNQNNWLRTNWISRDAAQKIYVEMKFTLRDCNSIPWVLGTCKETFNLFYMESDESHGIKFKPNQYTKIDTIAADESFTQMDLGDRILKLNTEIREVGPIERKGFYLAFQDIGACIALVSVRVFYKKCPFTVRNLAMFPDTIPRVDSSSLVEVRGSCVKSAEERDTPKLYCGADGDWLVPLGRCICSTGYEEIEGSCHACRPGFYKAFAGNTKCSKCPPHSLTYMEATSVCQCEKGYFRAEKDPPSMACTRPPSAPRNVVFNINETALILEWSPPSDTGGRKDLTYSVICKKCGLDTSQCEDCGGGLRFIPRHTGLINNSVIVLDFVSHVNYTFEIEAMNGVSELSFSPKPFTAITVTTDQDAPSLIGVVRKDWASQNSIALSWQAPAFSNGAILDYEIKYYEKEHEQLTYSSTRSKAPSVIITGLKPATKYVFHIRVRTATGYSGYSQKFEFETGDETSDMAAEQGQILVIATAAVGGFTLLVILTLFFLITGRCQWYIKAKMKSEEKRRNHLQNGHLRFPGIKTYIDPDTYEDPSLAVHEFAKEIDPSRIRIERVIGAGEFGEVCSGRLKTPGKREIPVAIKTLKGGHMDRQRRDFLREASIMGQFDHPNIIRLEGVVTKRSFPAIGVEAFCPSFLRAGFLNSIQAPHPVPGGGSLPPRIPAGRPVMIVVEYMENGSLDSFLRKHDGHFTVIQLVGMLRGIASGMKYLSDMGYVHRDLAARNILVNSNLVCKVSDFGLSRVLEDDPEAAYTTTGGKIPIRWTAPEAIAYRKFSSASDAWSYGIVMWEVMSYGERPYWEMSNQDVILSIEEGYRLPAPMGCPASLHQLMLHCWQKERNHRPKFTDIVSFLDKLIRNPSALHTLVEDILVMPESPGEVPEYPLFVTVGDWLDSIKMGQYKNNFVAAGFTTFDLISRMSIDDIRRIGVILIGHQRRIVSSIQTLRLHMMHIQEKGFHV

FLT3 = target: T2, FLT3 (Homo sapiens, UniProt P36888); conditions: read-out: %Inh FLT3
T2 sequence (P36888 27-993): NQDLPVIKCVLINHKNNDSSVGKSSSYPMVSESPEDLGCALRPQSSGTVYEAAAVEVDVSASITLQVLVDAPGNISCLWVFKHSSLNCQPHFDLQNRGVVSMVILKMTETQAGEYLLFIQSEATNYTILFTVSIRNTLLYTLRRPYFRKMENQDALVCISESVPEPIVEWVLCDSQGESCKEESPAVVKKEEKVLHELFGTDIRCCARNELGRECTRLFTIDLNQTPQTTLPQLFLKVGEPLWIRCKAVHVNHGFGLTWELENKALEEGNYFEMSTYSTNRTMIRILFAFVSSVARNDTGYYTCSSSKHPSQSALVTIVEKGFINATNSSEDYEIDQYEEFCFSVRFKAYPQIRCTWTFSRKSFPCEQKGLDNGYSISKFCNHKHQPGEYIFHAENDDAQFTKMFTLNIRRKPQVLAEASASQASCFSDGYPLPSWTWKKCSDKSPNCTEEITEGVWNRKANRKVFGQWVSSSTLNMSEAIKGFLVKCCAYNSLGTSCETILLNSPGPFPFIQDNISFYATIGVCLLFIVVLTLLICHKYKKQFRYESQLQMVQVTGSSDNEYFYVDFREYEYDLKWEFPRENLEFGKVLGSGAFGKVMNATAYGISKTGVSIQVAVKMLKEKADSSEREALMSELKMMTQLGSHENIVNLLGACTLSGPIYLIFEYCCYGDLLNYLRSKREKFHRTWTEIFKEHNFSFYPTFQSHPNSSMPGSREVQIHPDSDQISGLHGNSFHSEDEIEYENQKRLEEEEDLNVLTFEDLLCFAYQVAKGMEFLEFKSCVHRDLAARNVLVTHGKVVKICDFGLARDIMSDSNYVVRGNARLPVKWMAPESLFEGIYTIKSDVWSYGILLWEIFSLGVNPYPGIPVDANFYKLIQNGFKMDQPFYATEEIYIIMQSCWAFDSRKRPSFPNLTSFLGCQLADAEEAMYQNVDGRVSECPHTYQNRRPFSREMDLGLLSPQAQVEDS

HIPK1 = HIPK1 (Homo sapiens, UniProt Q86Z02); conditions: read-out: %Inh HIPK1
Sequence of HIPK1 (Q86Z02 whole entry): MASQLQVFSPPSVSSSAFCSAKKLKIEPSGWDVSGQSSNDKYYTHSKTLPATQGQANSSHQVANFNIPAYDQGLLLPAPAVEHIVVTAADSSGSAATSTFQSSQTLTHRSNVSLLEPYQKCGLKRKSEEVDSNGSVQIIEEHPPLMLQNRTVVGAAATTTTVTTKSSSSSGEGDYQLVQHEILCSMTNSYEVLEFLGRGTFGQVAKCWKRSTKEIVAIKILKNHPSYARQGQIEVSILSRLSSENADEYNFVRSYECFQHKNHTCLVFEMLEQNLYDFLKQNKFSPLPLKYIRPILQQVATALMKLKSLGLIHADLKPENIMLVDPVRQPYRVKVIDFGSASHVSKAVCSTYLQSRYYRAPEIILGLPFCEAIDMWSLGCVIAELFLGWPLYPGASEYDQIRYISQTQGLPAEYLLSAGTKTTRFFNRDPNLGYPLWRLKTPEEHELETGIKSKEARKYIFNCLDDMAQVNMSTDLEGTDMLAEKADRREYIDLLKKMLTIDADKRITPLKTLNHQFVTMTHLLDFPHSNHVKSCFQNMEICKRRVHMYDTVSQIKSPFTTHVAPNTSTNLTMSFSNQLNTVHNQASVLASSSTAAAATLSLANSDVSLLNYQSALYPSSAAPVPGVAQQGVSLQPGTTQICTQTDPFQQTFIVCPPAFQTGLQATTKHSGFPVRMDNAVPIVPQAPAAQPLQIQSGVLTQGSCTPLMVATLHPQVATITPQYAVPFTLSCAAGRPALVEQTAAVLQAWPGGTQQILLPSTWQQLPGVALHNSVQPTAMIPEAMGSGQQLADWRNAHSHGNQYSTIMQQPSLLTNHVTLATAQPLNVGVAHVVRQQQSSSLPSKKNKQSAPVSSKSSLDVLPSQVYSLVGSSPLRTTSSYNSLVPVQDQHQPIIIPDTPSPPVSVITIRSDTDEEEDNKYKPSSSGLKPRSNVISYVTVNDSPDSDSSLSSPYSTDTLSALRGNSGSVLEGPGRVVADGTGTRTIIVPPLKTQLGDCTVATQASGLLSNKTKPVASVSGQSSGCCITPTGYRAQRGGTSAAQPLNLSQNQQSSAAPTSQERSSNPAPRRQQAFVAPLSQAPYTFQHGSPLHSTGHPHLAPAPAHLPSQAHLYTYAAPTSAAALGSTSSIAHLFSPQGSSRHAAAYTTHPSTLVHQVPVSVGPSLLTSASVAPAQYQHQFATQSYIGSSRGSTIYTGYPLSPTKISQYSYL

ITK = target: T3, ITK (Homo sapiens, UniProt Q08881); conditions: read-out: %Inh ITK
T3 sequence (Q08881 1-620): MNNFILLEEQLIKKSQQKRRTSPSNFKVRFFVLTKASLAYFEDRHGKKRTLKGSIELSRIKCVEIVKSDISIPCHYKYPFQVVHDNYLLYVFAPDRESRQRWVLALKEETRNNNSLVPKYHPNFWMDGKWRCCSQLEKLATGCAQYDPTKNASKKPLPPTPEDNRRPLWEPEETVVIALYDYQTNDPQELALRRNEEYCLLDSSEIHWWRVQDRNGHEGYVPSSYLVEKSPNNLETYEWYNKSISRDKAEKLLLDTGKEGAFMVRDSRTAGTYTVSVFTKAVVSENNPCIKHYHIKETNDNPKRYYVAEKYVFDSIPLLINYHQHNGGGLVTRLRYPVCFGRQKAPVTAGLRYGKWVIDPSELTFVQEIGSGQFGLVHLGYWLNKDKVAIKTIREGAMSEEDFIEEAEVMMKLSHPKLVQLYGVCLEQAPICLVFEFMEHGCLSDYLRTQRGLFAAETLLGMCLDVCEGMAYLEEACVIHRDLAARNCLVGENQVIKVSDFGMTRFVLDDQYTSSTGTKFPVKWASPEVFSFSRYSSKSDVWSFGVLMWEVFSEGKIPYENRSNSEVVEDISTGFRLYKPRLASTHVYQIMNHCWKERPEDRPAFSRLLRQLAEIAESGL

KIT = KIT (Homo sapiens, UniProt P10721); conditions: read-out: %Inh KIT
Sequence of KIT (P10721 26-976): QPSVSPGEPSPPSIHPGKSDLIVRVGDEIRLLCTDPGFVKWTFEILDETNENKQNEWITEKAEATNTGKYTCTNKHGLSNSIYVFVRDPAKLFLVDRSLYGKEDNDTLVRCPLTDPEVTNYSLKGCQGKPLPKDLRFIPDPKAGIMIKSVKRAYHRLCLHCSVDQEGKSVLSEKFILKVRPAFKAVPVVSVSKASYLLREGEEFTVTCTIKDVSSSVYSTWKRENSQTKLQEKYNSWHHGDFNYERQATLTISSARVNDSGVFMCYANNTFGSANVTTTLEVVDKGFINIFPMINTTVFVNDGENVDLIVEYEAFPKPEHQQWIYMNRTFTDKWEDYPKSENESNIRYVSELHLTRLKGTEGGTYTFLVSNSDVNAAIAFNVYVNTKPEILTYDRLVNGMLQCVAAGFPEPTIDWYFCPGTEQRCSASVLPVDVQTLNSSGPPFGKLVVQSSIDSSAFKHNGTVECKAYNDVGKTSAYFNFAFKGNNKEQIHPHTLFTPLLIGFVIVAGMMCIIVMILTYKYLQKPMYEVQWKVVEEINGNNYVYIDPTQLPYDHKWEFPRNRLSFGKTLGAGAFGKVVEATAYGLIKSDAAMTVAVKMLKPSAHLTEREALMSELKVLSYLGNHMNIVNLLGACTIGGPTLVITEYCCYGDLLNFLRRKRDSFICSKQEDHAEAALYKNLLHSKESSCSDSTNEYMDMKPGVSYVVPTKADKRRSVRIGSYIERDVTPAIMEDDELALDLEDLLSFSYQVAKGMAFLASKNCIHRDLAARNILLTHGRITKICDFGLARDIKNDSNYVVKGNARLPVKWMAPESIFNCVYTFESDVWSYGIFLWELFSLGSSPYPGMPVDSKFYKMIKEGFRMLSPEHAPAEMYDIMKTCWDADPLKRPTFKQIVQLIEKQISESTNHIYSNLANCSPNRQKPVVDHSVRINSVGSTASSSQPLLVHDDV

MAP3K1 = MAP3K1 (Homo sapiens, UniProt Q13233); conditions: read-out: %Inh MAP3K1

Sequence of AKT2 (P31751 whole entry): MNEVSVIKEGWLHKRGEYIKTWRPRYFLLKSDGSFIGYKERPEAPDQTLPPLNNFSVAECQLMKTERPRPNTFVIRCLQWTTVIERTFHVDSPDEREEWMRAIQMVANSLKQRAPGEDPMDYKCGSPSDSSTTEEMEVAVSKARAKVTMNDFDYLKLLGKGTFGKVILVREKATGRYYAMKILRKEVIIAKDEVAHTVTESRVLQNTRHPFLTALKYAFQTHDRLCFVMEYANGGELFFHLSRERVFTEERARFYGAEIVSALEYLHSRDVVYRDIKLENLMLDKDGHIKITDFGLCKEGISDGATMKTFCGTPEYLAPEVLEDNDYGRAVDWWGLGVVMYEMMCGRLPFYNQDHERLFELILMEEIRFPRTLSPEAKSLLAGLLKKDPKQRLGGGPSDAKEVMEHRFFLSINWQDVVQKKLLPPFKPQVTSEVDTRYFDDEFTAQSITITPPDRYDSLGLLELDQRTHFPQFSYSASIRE
Sequence of ALK (Q9UM73 19-1620): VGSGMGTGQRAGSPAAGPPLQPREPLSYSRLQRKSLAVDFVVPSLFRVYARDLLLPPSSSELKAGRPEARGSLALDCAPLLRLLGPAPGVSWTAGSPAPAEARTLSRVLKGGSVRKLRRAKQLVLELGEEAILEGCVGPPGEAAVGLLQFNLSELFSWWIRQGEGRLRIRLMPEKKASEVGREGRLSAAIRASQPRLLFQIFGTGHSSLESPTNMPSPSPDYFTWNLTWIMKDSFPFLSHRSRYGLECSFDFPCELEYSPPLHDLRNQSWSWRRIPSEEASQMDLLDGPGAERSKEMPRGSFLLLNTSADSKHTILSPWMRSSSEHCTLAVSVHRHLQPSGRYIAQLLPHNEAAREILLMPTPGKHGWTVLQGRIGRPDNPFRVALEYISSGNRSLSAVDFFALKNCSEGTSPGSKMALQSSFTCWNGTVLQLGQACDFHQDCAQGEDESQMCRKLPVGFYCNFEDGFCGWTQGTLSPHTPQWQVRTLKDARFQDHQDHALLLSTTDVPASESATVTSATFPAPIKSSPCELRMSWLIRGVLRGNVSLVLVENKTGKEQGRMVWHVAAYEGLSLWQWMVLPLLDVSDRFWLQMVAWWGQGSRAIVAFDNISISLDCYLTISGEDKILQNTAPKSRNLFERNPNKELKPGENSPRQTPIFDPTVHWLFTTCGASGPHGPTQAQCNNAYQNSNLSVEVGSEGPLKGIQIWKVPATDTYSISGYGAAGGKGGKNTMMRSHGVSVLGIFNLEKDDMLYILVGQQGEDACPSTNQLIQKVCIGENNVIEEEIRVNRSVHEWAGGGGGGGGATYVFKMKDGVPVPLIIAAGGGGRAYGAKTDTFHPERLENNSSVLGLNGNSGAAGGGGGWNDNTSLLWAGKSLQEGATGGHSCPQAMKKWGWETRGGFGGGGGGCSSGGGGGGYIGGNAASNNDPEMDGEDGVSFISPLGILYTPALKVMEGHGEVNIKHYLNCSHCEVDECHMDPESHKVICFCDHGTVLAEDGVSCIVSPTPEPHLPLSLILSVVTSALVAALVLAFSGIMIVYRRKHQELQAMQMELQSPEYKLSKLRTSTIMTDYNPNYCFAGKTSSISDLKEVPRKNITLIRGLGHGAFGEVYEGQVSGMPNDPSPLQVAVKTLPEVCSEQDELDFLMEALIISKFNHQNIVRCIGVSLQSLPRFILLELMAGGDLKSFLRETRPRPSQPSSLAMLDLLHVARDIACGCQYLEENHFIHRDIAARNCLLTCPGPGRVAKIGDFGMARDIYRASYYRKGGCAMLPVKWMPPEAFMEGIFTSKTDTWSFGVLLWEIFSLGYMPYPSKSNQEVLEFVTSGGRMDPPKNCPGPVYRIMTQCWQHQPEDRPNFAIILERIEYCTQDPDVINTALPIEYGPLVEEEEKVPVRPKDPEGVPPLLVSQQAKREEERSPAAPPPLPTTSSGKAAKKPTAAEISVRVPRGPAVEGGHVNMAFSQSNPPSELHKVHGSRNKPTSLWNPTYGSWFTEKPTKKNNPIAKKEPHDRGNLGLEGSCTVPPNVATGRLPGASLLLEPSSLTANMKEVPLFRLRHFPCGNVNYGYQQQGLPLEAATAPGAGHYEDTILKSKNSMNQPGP

Row | SMILES | inhibition at 1 µM (AKT2) | inhibition at 1 µM (ALK) | inhibition at 1 µM (EPHA6) | inhibition at 1 µM (FLT3) | inhibition at 1 µM (HIPK1) | inhibition at 1 µM (ITK) | inhibition at 1 µM (KIT) | inhibition at 1 µM (MAP3K1)
1 | CS(=O)(=O)Cc1ccc(Nc2nccc(-c3c(-c4cccc(NC(=O)C5CCCCC5)c4)nn4ncccc34)n2)cc1 [UNC10225159A] | 4% | 29% | 2% | 88% | 5% | 6% | 88% | 30%
2 | Cn1cc(-c2cnc(N)c3c(-c4ccc5c(c4)CCN5C(=O)Cc4ccccc4)csc23)cn1 [UNC10225012A] | 0% | 0% | 11% | 99% | 21% | 23% | 100% | 4%
3 | O=c1cc(N2CCOCC2)nc2n(Cc3cccc(Cl)c3Cl)c(C3CC3)nn12 [UNC10225469A] | 0% | 0% | 0% | 10% | 16% | 4% | 0% | 14%
4 | COc1cccc(OC)c1C(=O)Nc1cccc(-c2nn3ccccc3c2-c2ccnc(Nc3cccc(F)c3)n2)c1 [UNC10225310A] | 0% | 0% | 11% | 49% | 31% | 93.8% | 90.9% | 0%
5 | Cc1ccc(NC(=O)Nc2cccc(C(F)(F)F)c2)cc1 [UNC10225187A] | 3% | 0% | 0% | 59% | 8% | 12% | 91.4% | 0%
